Reference: patent publication US20040022788A1, “Compositions and methods for promoting or inhibiting angiogenesis” (priority 1998, published 2004)
“Also recorded” adds a separate entry of the source. One block for each compound: values may come before it.

What was measured:
HUVEC [1] = test: HUVEC cell proliferation assay (CyQUANT); type: cell-based, human
Protocol: Cell Proliferation Assay. HUVEC were plated at a density of 5000 cells/well in media depleted of fetal calf serum (FCS) overnight to allow the cells to become quiescent. Fresh media containing 5% FCS, 10 ng/ml basic fibroblast growth factor (bFGF) and 3 ng/ml vascular endothelial growth factor (VEGF) were added to the wells along with angiostatin (1.0 μM), antibody directed against the recombinant human alpha-subunit of ATP synthase (1:10 dil), antibody directed against the recombinant human beta-subunit of ATP synthase (1:10 dil), pre-immune serum (1:10 dil) or cycloheximide ([…]). Cell density was measured after 24 hrs using CyQUANT Cell Proliferation Assay Kit (Molecular Probes) in a fluorometric plate reader (Molecular Devices). The absorbance values used to calculate the percent proliferation of the cells ranged from 1.24 or 1.00 for treated and 2.57 for untreated.

[2] = molecular target: T1, ATP synthase on the surface of HUVEC (Homo sapiens, UniProt P05496+P06576+P25705); test: Cell-surface ATP generation by bioluminescent luciferase assay; type: cell-based; conditions: oligomycin (0.1 mg/mL per method), 50 μM ADP
T1 construct: endogenous in cells; host or cells: HUVEC (primary human umbilical vein endothelial cells)
Protocol: Cell-surface ATP Assay. […] Cells were treated with (1 μM) angiostatin or (0.1 mg/mL) oligomycin for 1 hr at 37° C. All cells were then incubated with 0.1 Ci ^32P and 0.1 Ci ([…]) [2,8-^3H]-ADP (NEN Life Sciences) for 1 min. Supernatants were removed and centrifuged before assaying for ATP production by thin layer chromatography (TLC) or by firefly luciferase assay. ATP Generation by Bioluminescent Luciferase Assay. […] Louis, Mo.). In this firefly luciferin-luciferase reaction, only ATP is readily detected since the enzymatic reaction of firefly luciferase to oxidize luciferin is specific for ATP relative to all other nucleotides. Samples were injected with the ATP assay mixture and recordings were made in a LuminoskanRS (LabSystems, Franklin, Mass.) over a 10 s period. The response in a given sample or standard was quantified as area under the peak of the response and averaged for duplicate determinations. Data are expressed as picomoles of ATP produced per cell based on standards determined under the same conditions with each experiment. Angiostatin was prepared as described in Sottrup-Jensen, […]., Petersen, T. E. & Magnusson, S. (1978) Progress in Chemical Fibrinolysis and Thrombolysis (Raven Press, New York).

[3] = tested on: angiostatin binding site on HUVEC; test: Competition binding assay, 125I-labeled angiostatin on HUVEC; parameters: species or system human
Protocol: FIG. 6. Competition binding assay between angiostatin and the antibody against the alpha subunit of ATP synthase from E. coli. […] Cells were washed and remaining bound radioactivity was quantified by γ-counting. Non-specific binding was measured in the presence of excess unlabeled angiostatin and was subtracted from total binding. […] Competition studies were also performed simultaneously using rabbit pre-immune serum to account for non-specific inhibition. Error bars represent standard deviation. A 1 tailed homoscedastic t test was used for statistical analysis; p<0.10.
Binding Assays. Ligands were radioiodinated by using Iodobeads (Pierce), repurified on L-lysine-Sepharose, eluted with 100 mM ε-aminocaproic acid, and dialyzed in PBS, pH 7.0 before use in binding assays. […] Nonspecific binding was measured in the presence of excess unlabeled ligand.

[4] = molecular target: T2, purified bovine F1 ATP synthase (Bos taurus, UniProt P00829+P19483); test: F1 activity assay (ATPase, coupled NADH oxidation at 340 nm); type: biochemical; conditions: NaN3 2%
T2 construct: from tissue; host or cells: bovine heart mitochondria
Protocol: FIG. 12 is a bar graph showing the inhibition of purified F1 ATP synthase by angiostatin. Purified F1 ATP synthase activity was measured spectrophotometrically at λ=340 nm by coupling the production of ADP to the oxidation of NADH via the pyruvate kinase and lactate dehydrogenase reaction in which a decrease in the absorbance at λ=340 nm indicates active protein (dark six membered rings). […] Control antibodies had no effect on activity (light circles and squares). Representative data shown, n=3.
Purification of Bovine Heart F1 ATP Synthase and F1 Activity Assay. Fresh bovine heart mitochondria were obtained as previously described (23) and sonicated to yield sub-mitochondrial particles (24). The F1 portion was separated from membrane-bound FO by chloroform extraction. The aqueous layer was centrifuged at 105,000×g to remove particulate matter before purifying over an S300 gel filtration column. […] ATPase activity was measured spectrophotometrically by monitoring at λ=340 nm by coupling the production of ADP to the oxidation of NADH via pyruvate kinase and lactate dehydrogenase reactions as described in Zheng,& Ramirez, Biochem Biophys Res Commun 261(25):499-503 (1999).

[5] = molecular target: T3, recombinant alpha subunit of human ATP synthase (Homo sapiens, UniProt P25705); test: Ligand blot binding to the recombinant alpha subunit of ATP synthase
T3 construct: His tag; made in house; host or cells: E. coli BL21DE3
Protocol: FIGS. 7A-7E. Angiostatin binding to the recombinant alpha subunit of human ATP synthase. The alpha subunit of human ATP synthase was cloned and expressed in E. coli and purified using Qiagen's nickel-Sepharose protein purification system before dialyzing in phosphate buffered saline (PBS), pH 7.0. Recombinant protein was electrophoresed on 5-15% SDS-PAGE, electroblotted onto Immobilon™ membrane and incubated 18 h in 10 mM Tris-HCl, 0.15M NaCl, 0.05% NP40, pH 7.5 (TSN) containing ^125I-angiostatin. For competition studies, unlabeled ligand was added 4 h prior to radiolabeled ligand. Blots were washed in TSN buffer containing 0.05% Tween80 and bound radioactivity was quantified on a Molecular Dynamics PhosphorImager™.
Purification of the alpha-Subunit of ATP Synthase. Competent E. coli BL21DE3 were transformed with the pET24a(+) vector containing the alpha subunit, plated on 2× Bacto-yeast tryptone (YT) agarose, and grown overnight at 37° C. Twenty milliliters of 2× YT containing […] kanamycin was inoculated with one colony and grown overnight at 37° C. (200 rpm). A 1-liter culture (2× YT, […] kanamycin) was inoculated with 20 ml of the noninduced overnight culture and grown at 37° C. to an OD of 0.6 at a wavelength of 600 nm. Isopropyl […] was added to a final concentration of 1 mM and grown for an additional 3 h. Cells were harvested by centrifugation at 8,000 rpm for 10 min and stored overnight at −20° C. Lysates were prepared under denaturing conditions and batch-purified by using Qiagen Ni-NTA agarose. Resulting protein was dialyzed against PBS, pH 7.0 for use in all experiments.

HUVEC [6] = test: Direct binding of 125I-labeled plasminogen or angiostatin to endothelial cells, Scatchard analysis; parameters: species or system human; conditions: 125I-labeled ligand, 1 h at 4° C., read-out: apparent dissociation constant (Kd)
Protocol: FIGS. 1A and 1B. Direct binding assay and Scatchard analysis of plasminogen and angiostatin with endothelial cells. HUVEC were plated at a density of 10,000 cells/well and incubated with increasing concentrations of ^125I-labeled-plasminogen or angiostatin. FIG. 1A. ^125I-labeled plasminogen binding was concentration-dependent and saturable with an apparent dissociation constant ([…]) of 158 nM and 870,000 sites/cell. FIG. 1B. […] Error bars represent standard deviation.
(§1) Binding Assays. Ligands were radioiodinated by using Iodobeads (Pierce), repurified on L-lysine-Sepharose, eluted with 100 mM ε-aminocaproic acid, and dialyzed in PBS, pH 7.0 before use in binding assays. HUVEC were plated at a density of 5,000 or 10,000 cells/well and incubated with increasing concentrations of ^125I-labeled ligand in media containing 1% BSA for 1 h at 4° C. in 96-well plates. Wells were washed, and remaining bound radioactivity was quantified by using an LKB 1272 γ-radiation counter. Nonspecific binding was measured in the presence of excess unlabeled ligand.

[7] = tested on: plasminogen binding sites on HUVEC; test: Competition binding assay, 125I-labeled plasminogen on HUVEC; parameters: species or system human; conditions: 1.0 μM 125I-labeled plasminogen; 25-fold molar excess of unlabeled plasminogen
Protocol: FIG. 2. Competition binding assay between plasminogen and angiostatin. HUVEC were plated at a density of 10,000 cells/well and incubated with 1.0 μM ^125I-labeled plasminogen in the presence of 100-fold molar excess of unlabeled angiostatin for 1 h at 4° C. Cells were washed and the remaining radioactivity was quantified by γ-counting.
as §1

Compound: C[C@@H]1C[C@@H]([C@H](O)CC2CC(=O)NC(=O)C2)C(=O)[C@@H](C)C1 [Cycloheximide]
inhibition at 10 µg/mL (HUVEC [1]; Homo sapiens, HUVEC, 24 h, read-out: Percent Inhibition (+/− S.E.M.) of HUVEC proliferation): 100%
cellular morphology of treated cells (HUVEC [1]; compared with untreated cells, data not shown): obvious rounded morphology

Compound: CC[C@H]1/C=C/C=C/C[C@@H](C)[C@H](O)[C@@](C)(O)C(=O)[C@@H](C)[C@H](O)[C@@H](C)C(=O)[C@@H](C)[C@H](O)[C@@H](C)/C=C/C(=O)O[C@@H]2[C@H](C)[C@H](CC1)O[C@]1(CC[C@H](C)[C@H](C[C@@H](C)O)O1)[C@H]2C [Oligomycin, reference compound]
inhibition at 100 µg/mL ([2]; HUVEC, read-out: Percent Inhibition (+/− S.E.M.) of ATP generation): 84%
Percent Inhibition (+/− S.E.M.) of ATP generation [2]: 83.5 +/− 4.5%

inhibition of 125I-labeled angiostatin binding ([3]; 100 mM ε-aminocaproic acid, data not shown): only slightly inhibited
Compound: NCCCCCC(=O)O [ε-aminocaproic acid, reference compound]

Compound: [N-]=[N+]=[N-].[Na+] [NaN3, reference compound]
inhibition of purified F1 ATPase activity [4]: completely inhibited

inhibition of 125I-labeled angiostatin binding to recombinant alpha subunit ([5]; 0.5 nM 125I-labeled angiostatin, 2500-fold molar excess of unlabeled plasminogen): not inhibited
binding of 125I-labeled ligand to recombinant alpha subunit ([5]; ligand blot): did not bind
inhibition of 125I-labeled plasminogen binding [7]: about 80%
Compound: plasminogen: purified from human plasma by affinity chromatography, 92 kDa
inhibition of 125I-labeled angiostatin binding ([3]; excess unlabeled plasminogen (2-fold molar excess in FIG. 2 legend)): little or no effect; also recorded: no inhibition
Kd (HUVEC [6]): 158 nM
